According to patent publication US20260124181A1, “AGENT FOR REDUCING BLOOD MYOSTATIN LEVEL” (KOWA COMPANY, LTD., priority 2022, published 2026):

System: blood myostatin
Experiment: Effect of compound A on blood myostatin in NAFLD patients, oral administration for 72 weeks versus placebo
Assay type: in vivo, human
Conditions: 0.4 mg per day oral (0.2-mg tablet twice a day)
Protocol: An effect on blood myostatin at the time of the oral administration of 0.4 mg per day of the compound A (a 0.2-mg tablet of the compound A was administered twice a day at the time of fasting) to a patient of a nonalcoholic fatty liver disease (NAFLD) for 72 weeks was investigated by comparison to the administration of a placebo. […] It was clear from FIG. 1 that the administration of the compound A reduced the fasting blood myostatin concentration at 12 weeks and 72 weeks from the administration in a stepwise manner as compared to the placebo administration.

CC[C@@H](Oc1cccc(CN(CCCOc2ccc(OC)cc2)c2nc3ccccc3o2)c1)C(=O)O [Compound A, (R)-2-[3-[[N-(benzoxazol-2-yl)-N-3-(4-methoxyphenoxy)propyl]aminomethyl]phenoxy]butyric acid]
fasting blood myostatin concentration, change from baseline as compared to placebo (12 weeks after start of administration): reduced | fasting blood myostatin concentration, change from baseline as compared to placebo (72 weeks after start of administration): reduced
